Calls of active or inactive are those of the source.
Experiments:
[1] = biological target: Peroxisome proliferator-activated receptor gamma/Nuclear receptor coactivator 2 (Homo sapiens, UniProt P37231); type: functional;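 further: agonist potency for raising coactivator recruitment to the receptor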
[2] = biological target: Peroxisome proliferator-activated receptor gamma/Nuclear receptor coactivator 3 (Homo sapiens, UniProt P37231); type: functional;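 further: agonist potency for raising coactivator recruitment to the receptor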
[3] = biological target: Peroxisome proliferator-activated receptor gamma/Nuclear receptor coactivator 1 (Homo sapiens, UniProt P37231); type: functional;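 further: agonist potency as compounds enhance coactivator SRC-1 recruitment to PPARgamma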
[4] = Counterscreen for IDE inhibitors: Luminescence-based cell-based high throughput dose response assay to identify compounds that are cytotoxic to HEK cells. [Related pubchem assays: 434962 (Primary screen (IDE inhibitors in singlicate)), 449730 (Counterscreen (Cytotoxicity in triplicate)), 435028 (Confirmation (IDE inhibitors in triplicate)) …; type: functional; details: HEK293
[5] = biological target: T1, Insulin-degrading enzyme (Homo sapiens, UniProt P14735); test: Dose Response: Fluorescence polarization-based cell-based high throughput dose response assay for inhibitors of insulin-degrading enzyme (IDE). [Related pubchem assays: 434962 (Primary screen (IDE inhibitors in singlicate)), 449730 (Counterscreen (Cytotoxicity in triplicate)), 435028 (Confirmation (IDE inhibitors in triplicate)), 434984 (Summary …; type: functional
T1 sequence (P14735 whole entry): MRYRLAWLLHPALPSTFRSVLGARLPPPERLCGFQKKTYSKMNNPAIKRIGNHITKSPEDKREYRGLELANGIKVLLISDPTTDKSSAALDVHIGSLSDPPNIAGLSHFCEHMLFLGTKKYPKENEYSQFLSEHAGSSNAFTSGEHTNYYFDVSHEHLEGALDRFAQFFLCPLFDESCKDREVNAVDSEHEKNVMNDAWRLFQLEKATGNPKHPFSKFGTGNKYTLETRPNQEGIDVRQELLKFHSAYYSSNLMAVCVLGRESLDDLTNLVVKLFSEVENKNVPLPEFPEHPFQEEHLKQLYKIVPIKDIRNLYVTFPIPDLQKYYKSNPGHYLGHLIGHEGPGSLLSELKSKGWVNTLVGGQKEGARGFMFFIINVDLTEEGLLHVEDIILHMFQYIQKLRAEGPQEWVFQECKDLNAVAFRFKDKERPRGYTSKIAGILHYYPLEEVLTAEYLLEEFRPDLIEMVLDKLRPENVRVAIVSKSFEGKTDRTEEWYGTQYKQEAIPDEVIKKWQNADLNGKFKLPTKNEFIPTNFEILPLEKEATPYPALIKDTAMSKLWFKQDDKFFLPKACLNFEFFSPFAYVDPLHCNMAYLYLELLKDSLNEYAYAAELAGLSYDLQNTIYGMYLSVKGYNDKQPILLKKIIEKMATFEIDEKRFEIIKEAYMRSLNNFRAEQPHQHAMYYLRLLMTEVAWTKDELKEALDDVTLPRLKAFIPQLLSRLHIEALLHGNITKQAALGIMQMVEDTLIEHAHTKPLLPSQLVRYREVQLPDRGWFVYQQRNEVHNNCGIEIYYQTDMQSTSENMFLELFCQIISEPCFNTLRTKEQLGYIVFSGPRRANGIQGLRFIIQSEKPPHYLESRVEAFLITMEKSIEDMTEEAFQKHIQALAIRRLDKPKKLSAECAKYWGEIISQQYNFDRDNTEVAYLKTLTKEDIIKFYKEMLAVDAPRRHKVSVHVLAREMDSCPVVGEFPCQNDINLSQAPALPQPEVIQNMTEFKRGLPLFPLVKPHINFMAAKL

[6] = biological target: T2, Neuropeptide Y receptor type 2 (Homo sapiens, UniProt P49146); type: functional, cell-based;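 further: HEK293 cells expressing the receptor and a CNG channel; stimulus was NPY near EC95 followed by isoproterenol to raise cAMP; antagonist potency measured as restoring cAMP signal that NPY suppresses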
T2 sequence (P49146 whole entry): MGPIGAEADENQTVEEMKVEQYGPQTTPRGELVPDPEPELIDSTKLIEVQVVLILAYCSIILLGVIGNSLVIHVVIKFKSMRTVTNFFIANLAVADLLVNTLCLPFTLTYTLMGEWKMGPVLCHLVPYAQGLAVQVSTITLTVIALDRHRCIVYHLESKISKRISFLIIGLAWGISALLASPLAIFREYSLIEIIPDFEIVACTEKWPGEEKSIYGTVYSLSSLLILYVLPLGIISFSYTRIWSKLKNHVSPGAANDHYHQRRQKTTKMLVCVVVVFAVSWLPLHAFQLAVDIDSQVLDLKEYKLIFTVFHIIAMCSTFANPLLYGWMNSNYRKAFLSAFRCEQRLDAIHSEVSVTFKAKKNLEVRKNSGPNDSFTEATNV

[7] = biological target: T3, Neuropeptide Y receptor type 1 (Homo sapiens, UniProt P25929); type: functional;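 further: HEK293 cells with a CNG channel challenged with NPY then isoproterenol; potency as antagonist that reverses NPY suppression of cAMP signal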
T3 sequence (P25929 whole entry): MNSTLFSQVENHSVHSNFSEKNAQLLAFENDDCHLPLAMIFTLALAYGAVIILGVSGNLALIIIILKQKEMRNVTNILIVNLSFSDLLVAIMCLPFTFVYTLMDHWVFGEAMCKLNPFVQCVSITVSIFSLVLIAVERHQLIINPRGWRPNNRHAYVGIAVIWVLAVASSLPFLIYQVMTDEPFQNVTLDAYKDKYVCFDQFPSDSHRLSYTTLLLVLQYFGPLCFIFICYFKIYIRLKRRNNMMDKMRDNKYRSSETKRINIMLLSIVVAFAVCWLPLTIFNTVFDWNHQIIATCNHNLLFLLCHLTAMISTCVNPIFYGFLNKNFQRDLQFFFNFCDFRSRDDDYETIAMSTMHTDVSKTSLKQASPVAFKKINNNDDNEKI

[8] = cells; type: functional, cell-based
[9] = biological target: T4, Bcl-2-like protein 10 (Homo sapiens, UniProt Q9HD36); test: Biochemical TR3 FP assay of Bcl-B inhibitor potency, EC50 (AID 1243); type: functional
T4 sequence (Q9HD36 whole entry): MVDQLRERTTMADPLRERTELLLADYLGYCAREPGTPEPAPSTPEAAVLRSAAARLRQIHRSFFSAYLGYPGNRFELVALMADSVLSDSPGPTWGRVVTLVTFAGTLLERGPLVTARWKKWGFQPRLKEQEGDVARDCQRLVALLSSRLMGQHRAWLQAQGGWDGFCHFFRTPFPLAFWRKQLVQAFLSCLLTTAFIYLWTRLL

[10] = inhibitors of Vif binding to APOBEC3G peptide, primary screen, biochemical, TR-FRET, GST-Vif 1-94, biotin-A3G peptide, dose response retest (AID 1117319); type: functional;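 further: TR-FRET signal of purified GST-Vif binding a biotinylated A3G peptide; inhibitors lower the FRET signal by blocking Vif and A3G binding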
[11] = THP-1 cell cytotoxicity, dose response, cytotoxicity control for Vif-APOBEC3G degradation inhibitor project, THP-1 cells (AID 1117359); type: functional; details: Human immunodeficiency virus 1, THP-1
[12] = biological target: Protein Tat (Human immunodeficiency virus type 1 group M subtype B (isolate HXB2)(HIV-1), UniProt P04608); type: functional;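 further: tat binding to TAR RNA read out by fluorescence polarization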
[13] = test system: Vero; test: Vero cell cytotoxicity, cytotoxicity control for flavivirus capping enzyme inhibitors (AID 588742); type: functional; details: Chlorocebus sabaeus
[14] = cells; type: functional, cell-based; remark: listed apart in the source
[15] = biological target: T5, COUP transcription factor 2 (Homo sapiens, UniProt P24468); test: Luminescence-based cell-based high throughput dose response assay to identify inhibitors of COUP-TFII (NR2F2).; type: functional;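 further: HEK293 cells transiently cotransfected with COUP-TFII expression vector and reporter; luciferase reporter luminescence driven by COUP-TFII from the pX2-168 reporter plasmid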
T5 sequence (P24468 whole entry): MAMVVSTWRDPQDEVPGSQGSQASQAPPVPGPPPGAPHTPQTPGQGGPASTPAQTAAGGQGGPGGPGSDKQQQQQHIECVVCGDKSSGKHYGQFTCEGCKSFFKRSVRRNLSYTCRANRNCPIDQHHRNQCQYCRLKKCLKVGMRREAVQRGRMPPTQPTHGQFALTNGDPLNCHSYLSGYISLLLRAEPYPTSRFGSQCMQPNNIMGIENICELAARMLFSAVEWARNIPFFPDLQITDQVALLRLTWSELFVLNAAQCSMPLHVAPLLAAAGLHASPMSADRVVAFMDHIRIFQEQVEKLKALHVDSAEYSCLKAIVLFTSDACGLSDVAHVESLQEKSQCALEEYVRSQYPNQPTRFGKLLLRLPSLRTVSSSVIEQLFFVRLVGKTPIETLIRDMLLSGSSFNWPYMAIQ

[16] = biological target: Protein Wnt-3a (Mus musculus, UniProt P27467); test: Wnt3a-driven reporter signaling inhibition, dose response, selectivity assay for Gli-SUFU antagonist project, Wnt-LIGHT cells, luminescence (AID 651570); type: functional; details: read-out: IC50_Mean;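 further: Wnt-LIGHT reporter cells stimulated with conditioned medium from Wnt3a-producing cells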
[17] = test system: INS1; test: beta cell apoptosis inhibitors, cytokine rescue, dose response, luminescence, retest (AID 449756); type: functional, cell-based;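 further: cell death triggered by IL-1 beta plus TNF-alpha plus IFN-gamma mixture; protective hits raise ATP signal compared with cytokine alone wells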
[18] = biological target: T3, Neuropeptide Y receptor type 1; test: NPY-Y1 receptor antagonist potency, dose response, cell-based (AID 1277); type: functional
[19] = insulin promoter down-regulators in MIN6 cells, imaging, high-content screening, mouse beta cells (AID 1628); type: functional
[20] = biological target: T2, Neuropeptide Y receptor type 2; test: NPY-Y2 antagonist potency, selectivity check, dose response, counter-screen for NPY-Y1 antagonist project, cell-based (AID 1278); type: functional
[21] = cytotoxicity in MIN6 insulinoma cells, dose response, cytotoxicity control, cell-based, mouse insulinoma (AID 2122); type: functional;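 further: confirmatory high-throughput counterscreen run to flag cytotoxic compounds; mouse MIN-6 beta cells carrying an insulin promoter eGFP reporter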
[22] = cells; type: functional, cell-based; details: HEK-CNG
[23] = biological target: T6, Galanin receptor type 3 (Homo sapiens, UniProt O60755); test: Fluorescence-based cell-based primary high throughput dose response assay to identify antagonists of the Galanin Receptor 3 (GalR3).; type: functional
T6 sequence (O60755 whole entry): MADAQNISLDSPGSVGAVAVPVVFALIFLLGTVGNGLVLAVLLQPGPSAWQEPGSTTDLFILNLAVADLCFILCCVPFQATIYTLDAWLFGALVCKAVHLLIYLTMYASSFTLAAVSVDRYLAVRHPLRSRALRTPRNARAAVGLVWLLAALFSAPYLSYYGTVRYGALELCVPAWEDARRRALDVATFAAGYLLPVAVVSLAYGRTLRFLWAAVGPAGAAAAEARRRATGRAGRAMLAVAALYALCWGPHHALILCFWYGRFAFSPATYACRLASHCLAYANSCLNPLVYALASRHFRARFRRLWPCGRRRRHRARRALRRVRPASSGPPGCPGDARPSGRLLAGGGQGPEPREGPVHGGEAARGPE

[24] = test system: HT-1080; test: cytotoxicity in HT1080 fibrosarcoma cells, cell-based, fluorescence readout (AID 620); type: functional; details: Homo sapiens
[25] = Luminescence-based counterscreen assay for KLF5 inhibitors: dose response cell-based high throughput screening assay to identify cytotoxic compounds using the IEC-6 intestinal epithelial cell line. [Related pubchem assays: 1700 (Primary screen.), 1834 (Confirmation screen.), 1858 (Summary AID.), 1905 (Counterscreen.)]; type: functional
[26] = biological target: Luciferin 4-monooxygenase (Photinus pyralis, UniProt P08659); test: Counter Screen for Luciferase-based Assay Positives. [Related pubchem assays: 620, 618, 411 ]
[27] = biological target: T7, Mucolipin-3 (Homo sapiens, UniProt Q8TDD5); test: Fluorescence counterscreen assay for […] agonists: dose response cell-based high-throughput screening assay to identify agonists of the transient receptor potential channel ML3 (TRPML3). [Related pubchem assays: 1424, 1448 ]; type: functional
T7 sequence (Q8TDD5 whole entry): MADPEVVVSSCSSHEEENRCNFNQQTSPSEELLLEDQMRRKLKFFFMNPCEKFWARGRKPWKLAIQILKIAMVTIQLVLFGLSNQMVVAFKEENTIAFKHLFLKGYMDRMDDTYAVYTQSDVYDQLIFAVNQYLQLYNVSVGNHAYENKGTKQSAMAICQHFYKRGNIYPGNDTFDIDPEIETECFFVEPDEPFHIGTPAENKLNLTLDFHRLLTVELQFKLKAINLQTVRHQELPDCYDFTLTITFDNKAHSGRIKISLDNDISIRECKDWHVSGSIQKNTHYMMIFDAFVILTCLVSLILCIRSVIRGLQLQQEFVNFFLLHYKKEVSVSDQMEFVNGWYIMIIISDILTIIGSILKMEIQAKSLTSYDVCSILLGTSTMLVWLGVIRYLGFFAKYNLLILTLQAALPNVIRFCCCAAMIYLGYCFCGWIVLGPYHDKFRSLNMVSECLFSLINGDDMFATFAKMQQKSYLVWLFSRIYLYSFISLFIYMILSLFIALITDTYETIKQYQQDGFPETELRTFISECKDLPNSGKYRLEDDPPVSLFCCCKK

[28] = biological target: Ion channel NompC (Danio rerio, UniProt Q7T1G6); test: Dose response cell-based high-throughput screening assay for agonists of the transient receptor potential channel N1 (TRPN1). [Related pubchem assays (depositor defined):AID1424, AID1448]; type: functional
[29] = biological target: Troponin, cardiac muscle (Homo sapiens, UniProt P19429+P45379+P63316); test: Fluorescence-based biochemical high throughput dose response assay for activators of the calcium sensitivity of cardiac Regulated Thin Filaments (RTF). [Related pubchem assays (depositor defined):AID493008, AID493018, AID504382, AID504383]; type: protein-complex assay
[30] = enhancers of respiration in Yfh1-depleted yeast, dose response, Friedreich's ataxia, plus single-dose screen (AID 1465); type: functional;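 further: yeast depleted of Yfh1p frataxin homolog grown on glycerol needing respiration; WST-1 tetrazolium dye reduction as measure of cellular dehydrogenase metabolic activity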

Peroxisome proliferator-activated receptor gamma/Nuclear receptor coactivator 3, sequence (P37231 whole entry): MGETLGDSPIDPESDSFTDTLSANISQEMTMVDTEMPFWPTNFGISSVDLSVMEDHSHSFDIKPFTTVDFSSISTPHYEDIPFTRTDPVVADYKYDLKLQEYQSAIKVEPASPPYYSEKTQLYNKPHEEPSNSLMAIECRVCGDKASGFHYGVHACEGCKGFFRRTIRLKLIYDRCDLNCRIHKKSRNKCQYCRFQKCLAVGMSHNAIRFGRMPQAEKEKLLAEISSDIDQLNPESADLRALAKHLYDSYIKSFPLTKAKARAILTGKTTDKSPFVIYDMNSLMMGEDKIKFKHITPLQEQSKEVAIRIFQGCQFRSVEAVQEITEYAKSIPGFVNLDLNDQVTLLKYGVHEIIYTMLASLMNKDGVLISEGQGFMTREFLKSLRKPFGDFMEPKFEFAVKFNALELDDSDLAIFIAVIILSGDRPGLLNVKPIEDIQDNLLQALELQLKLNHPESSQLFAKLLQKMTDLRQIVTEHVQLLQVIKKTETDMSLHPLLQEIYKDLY
Peroxisome proliferator-activated receptor gamma/Nuclear receptor coactivator 3, sequence (Q9Y6Q9 whole entry, further chain): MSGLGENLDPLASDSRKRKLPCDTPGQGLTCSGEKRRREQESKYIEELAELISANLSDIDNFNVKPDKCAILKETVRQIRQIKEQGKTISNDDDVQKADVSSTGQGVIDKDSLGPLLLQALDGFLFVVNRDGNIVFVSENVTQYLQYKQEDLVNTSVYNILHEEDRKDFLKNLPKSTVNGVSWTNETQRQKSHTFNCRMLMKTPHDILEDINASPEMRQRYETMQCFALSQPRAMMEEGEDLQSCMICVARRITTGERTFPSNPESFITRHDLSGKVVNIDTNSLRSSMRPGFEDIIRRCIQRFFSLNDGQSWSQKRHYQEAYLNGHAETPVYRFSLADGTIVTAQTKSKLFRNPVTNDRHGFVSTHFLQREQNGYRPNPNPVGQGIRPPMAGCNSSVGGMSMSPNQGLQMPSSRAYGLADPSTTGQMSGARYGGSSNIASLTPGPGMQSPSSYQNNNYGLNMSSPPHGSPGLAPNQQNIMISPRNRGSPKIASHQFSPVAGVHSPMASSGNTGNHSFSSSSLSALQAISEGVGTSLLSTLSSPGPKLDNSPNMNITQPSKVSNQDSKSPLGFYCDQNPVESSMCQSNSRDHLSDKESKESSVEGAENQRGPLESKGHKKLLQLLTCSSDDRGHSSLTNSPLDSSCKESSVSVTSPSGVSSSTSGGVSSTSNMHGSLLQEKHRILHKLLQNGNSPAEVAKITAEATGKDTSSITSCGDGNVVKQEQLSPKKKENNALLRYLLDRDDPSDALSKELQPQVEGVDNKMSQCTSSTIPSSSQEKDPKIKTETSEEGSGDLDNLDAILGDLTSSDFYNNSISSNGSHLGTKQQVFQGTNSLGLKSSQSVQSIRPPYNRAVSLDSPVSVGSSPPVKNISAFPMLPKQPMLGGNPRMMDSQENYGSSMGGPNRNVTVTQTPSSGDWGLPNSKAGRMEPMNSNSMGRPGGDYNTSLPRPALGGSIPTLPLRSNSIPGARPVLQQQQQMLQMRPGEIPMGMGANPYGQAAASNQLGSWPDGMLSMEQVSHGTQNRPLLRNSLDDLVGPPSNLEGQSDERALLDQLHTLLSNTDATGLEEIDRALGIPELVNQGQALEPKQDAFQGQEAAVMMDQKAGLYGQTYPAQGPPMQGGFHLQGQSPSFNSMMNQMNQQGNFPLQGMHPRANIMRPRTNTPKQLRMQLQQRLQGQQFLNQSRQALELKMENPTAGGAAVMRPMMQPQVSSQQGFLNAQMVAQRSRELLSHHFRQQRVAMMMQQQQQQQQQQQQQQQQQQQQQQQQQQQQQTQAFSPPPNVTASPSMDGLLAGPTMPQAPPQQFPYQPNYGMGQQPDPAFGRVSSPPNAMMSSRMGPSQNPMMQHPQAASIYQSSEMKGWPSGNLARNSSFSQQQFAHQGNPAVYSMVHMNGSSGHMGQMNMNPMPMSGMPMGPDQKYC
Peroxisome proliferator-activated receptor gamma/Nuclear receptor coactivator 2, sequence (P37231 whole entry): as the sequence (P37231 whole entry) above
Peroxisome proliferator-activated receptor gamma/Nuclear receptor coactivator 2, sequence (Q15596 whole entry, further chain): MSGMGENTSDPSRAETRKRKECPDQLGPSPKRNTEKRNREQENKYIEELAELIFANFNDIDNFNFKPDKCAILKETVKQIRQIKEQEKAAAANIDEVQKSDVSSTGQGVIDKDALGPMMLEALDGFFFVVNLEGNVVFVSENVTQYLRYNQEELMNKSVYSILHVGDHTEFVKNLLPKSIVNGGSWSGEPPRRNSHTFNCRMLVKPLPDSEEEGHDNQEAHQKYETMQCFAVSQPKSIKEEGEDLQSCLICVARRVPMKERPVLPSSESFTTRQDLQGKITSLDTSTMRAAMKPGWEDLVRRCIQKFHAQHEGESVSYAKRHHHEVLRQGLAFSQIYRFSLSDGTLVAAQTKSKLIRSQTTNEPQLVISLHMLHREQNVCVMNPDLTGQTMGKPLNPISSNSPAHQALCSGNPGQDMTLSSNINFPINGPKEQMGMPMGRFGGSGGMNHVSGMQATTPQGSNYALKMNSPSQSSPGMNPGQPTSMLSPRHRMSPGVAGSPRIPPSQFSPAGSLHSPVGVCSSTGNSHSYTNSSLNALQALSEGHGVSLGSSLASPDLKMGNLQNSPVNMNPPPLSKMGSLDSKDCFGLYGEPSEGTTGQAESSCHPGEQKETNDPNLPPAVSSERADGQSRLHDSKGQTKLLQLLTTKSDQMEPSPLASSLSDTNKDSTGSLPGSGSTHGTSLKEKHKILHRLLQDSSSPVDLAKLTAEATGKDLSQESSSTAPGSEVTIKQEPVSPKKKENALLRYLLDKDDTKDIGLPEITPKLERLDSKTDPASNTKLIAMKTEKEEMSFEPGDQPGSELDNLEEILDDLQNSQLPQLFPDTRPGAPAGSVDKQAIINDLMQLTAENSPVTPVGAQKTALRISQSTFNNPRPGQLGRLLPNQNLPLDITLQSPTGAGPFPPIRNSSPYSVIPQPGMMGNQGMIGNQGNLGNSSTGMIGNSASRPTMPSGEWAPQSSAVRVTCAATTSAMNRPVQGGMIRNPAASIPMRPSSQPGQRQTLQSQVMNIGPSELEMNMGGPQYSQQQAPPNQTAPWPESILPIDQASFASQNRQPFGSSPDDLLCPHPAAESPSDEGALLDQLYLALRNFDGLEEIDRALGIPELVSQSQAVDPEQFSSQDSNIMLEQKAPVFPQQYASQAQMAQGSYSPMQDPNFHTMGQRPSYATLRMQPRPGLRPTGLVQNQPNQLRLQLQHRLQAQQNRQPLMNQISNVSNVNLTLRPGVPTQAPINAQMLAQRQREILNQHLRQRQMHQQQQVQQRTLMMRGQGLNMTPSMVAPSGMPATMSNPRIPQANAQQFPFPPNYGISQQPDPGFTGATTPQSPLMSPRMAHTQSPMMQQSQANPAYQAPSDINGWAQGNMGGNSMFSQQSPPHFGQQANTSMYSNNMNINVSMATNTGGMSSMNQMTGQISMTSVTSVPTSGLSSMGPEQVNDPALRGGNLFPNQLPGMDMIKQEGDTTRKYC
Protein Tat, sequence (P04608 whole entry): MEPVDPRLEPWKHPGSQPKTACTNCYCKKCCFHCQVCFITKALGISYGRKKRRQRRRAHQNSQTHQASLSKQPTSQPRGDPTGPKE
Luciferin 4-monooxygenase, sequence (P08659 whole entry): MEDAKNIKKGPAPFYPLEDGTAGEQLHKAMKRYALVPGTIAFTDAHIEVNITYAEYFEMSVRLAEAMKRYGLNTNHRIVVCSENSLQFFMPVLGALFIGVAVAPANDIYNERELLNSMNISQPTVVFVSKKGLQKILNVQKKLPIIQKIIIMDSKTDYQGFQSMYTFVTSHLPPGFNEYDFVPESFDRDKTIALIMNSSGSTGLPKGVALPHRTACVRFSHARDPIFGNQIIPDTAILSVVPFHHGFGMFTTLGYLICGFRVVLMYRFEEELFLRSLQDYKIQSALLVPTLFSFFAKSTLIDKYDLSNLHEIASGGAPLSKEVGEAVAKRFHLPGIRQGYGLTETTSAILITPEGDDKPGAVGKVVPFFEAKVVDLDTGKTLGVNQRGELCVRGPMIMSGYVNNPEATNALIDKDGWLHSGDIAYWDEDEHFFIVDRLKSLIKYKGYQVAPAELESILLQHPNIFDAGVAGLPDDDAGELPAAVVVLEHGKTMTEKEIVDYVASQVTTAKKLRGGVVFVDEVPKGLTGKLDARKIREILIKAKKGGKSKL
Protein Wnt-3a, sequence (P27467 whole entry): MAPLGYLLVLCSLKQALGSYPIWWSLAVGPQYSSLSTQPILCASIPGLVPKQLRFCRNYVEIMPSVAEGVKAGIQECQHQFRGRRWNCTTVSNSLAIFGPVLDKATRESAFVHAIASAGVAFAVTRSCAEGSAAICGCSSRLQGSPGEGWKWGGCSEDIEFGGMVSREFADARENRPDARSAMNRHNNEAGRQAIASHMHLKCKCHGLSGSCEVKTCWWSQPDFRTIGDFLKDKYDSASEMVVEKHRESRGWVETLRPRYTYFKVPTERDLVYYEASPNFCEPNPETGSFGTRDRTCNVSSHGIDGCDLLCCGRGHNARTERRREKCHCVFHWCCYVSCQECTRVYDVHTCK

## CC(C)(C)c1ccc(OCc2ccc(C(=O)N3CCOCC3)o2)cc1
[1]
  EC50: > 79.4 µM (not active)
[2]
  EC50: > 79.4 µM (not active)
[3]
  EC50: > 79.4 µM (not active)

## Cc1ccc(/C=N\NC(=O)/C(=C\Nc2nccc(C)n2)NC(=O)c2ccccc2)cc1
[4]
  IC50: > 55.7 µM (not active)
[5]
  IC50: 5.43 µM (active)

## COC(=O)c1cc(Cl)c(NC(=O)c2ccc(C(C)(C)C)cc2)cc1OC
[6]
  IC50: 4.32 µM (active)
[7]
  IC50: 5.31 µM (active)

## Oc1cccc(/C=N/c2c(-c3ccco3)nc3ccccn23)c1
[8]
  EC50: 66.5 µM (active)
[9]
  EC50: 9.07 µM (active)
[10]
  IC50: > 66.8 µM (active)
[11]
  CC50: > 40 µM (active)
[12]
  IC50: 53.3 µM (inconclusive)
[13]
  CC50: > 40 µM (active)
[14]
  EC50: > 350 µM (not active)

## COc1ccccc1-n1c(-c2ccccc2)c[n+]2c1CCc1ccccc1-2
[15]
  IC50: 6.73 µM (active)
[16]
  IC50: 6.31 µM (active)
[17]; Rattus norvegicus, INS1
  AC50: 2.31 µM (active)
[17]; ins1
  AC50: 3.62 µM (active)
[18]
  IC50: 8.77 µM (active)
[19]
  IC50: 548 nM (active)
[20]
  IC50: 11.6 µM (not active)
[21]
  IC50: 266 nM (active)
[22]
  EC50: > 29.9 µM (inactive)
[23]
  IC50: > 1.11 µM (active)

## O=C(Nc1nccs1)c1cc2c(s1)CCCCC2
[24]
  EC50: > 50 µM (not active)
[25]
  IC50: 33.2 µM (not active)
[26]
  EC50: 8.26 µM (active)

## CN1CCS/C1=C/C=C1\SC(=S)N(CC(=O)O)C1=O
[27]
  EC50: 12.2 µM (not active)
[28]
  EC50: 5.92 µM (active)
[29]
  EC50: 870 nM (active)
[30]
  EC50: > 100 µM (active)
